Measurements: patent publication US20080261994A1, “CYCLOPROPANE COMPOUNDS AND PHARMACEUTICAL USE THEREOF” (Japan Tobacco Inc., priority 2003, published 2008)
Read-outs that look alike come from different tables or passages of the source.

What was measured:
Type in all cases: biochemical
aggrecanase-1 = target: T1, aggrecanase-1 (Homo sapiens, UniProt O75173); assay: Aggrecanase-1 inhibitory action (Particle Assay, GAG release from aggrecan-containing polyacrylamide particles)
T1 sequence (O75173 213-837): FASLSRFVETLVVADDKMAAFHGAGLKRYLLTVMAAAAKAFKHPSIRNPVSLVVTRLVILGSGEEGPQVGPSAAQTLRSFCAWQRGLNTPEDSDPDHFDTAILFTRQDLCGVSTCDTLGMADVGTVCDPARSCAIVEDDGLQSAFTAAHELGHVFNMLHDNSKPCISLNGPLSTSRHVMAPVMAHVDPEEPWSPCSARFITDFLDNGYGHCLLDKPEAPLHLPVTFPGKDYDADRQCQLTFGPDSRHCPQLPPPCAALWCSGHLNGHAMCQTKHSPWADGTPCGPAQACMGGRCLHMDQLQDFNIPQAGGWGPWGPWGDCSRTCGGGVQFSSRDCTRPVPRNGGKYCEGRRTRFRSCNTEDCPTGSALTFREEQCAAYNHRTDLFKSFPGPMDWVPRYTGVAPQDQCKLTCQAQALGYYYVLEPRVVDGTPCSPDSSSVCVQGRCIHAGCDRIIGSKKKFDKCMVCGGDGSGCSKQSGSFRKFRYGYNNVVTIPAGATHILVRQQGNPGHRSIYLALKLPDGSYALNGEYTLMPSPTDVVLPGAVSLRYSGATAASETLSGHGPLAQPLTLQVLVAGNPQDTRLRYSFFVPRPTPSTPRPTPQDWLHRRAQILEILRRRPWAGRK
How it was run: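 Enzyme and compound incubated with aggrecan-containing polyacrylamide particles in Tris-HCl buffer at 37° C for 15 h. Released GAG in supernatant measured with 1,9-dimethylmethylene blue at 595 nm against chondroitin sulfate standard; % inhibition from enzyme-free and inhibitor-free wells, reported as TC50 (μM).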

MMP-1 = target: T2, MMP-1 (Homo sapiens, UniProt P03956); assay: MMP-1 inhibitory action (Type I collagen Activity Measurement kit, FITC-labeled collagen type I)
T2 sequence (P03956 100-469): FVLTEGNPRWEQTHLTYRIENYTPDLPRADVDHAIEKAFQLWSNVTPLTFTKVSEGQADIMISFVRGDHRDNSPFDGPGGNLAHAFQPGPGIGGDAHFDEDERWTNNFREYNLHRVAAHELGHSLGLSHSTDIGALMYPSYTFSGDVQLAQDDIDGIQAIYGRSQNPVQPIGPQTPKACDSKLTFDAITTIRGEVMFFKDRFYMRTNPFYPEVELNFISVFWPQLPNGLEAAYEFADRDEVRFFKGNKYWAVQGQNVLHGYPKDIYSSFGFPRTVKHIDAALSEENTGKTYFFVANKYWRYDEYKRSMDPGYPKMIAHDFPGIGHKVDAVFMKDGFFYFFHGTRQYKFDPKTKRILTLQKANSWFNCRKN

Recombinant Human MMP-13 = target: T3, Recombinant Human MMP-13 (Homo sapiens, UniProt P45452); assay: MMP-13 inhibitory activity (MMP-13 specific fluorescent substrate with quencher)
T3 construct: purchased R&D systems 511-MM
How it was run: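 Recombinant human MMP-13 with test compound, reaction started with quenched fluorogenic peptide 7-MCA-Pro-CHA-Gly-NVal-His-Ala-DPA in Tris-HCl buffer, 1 h at 25 °C, stopped with acetic acid. Fluorescence at Ex 325/Em 405 nm; % inhibition versus enzyme-free and inhibitor-free wells, reported as IC50 (μM).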

[1] = Experimental Example 1, read-out: IC50 AG1
[2] = Experimental Example 2, read-out: IC50 MMP1
[3] = Experimental Example 3, read-out: IC50 MMP13
[4] = aggrecanase-1 inhibitory action, read-out: IC50 AG1 (Experimental Example 1)
[5] = MMP-1 inhibitory action, FITC-labeled collagen type I, 37° C. for 3 hr, read-out: IC50 MMP1 (Experimental Example 2)
[6] = Recombinant Human MMP-13, fluorescent substrate, 25° C. for 1 h, read-out: IC50 MMP13 (Experimental Example 3)

| SMILES | IC50 (aggrecanase-1; [1]) [nM] | IC50 (MMP-1; [2]) [nM] | IC50 (Recombinant Human MMP-13; [3]) [nM] | IC50 (aggrecanase-1; [4]) [nM] | IC50 (MMP-1; [5]) [nM] | IC50 (Recombinant Human MMP-13; [6]) [nM] |
| --- | --- | --- | --- | --- | --- | --- |
| O=C(O)C1(NS(=O)(=O)c2ccc(-c3cc(C(F)(F)F)on3)s2)CC1c1cccc(NS(=O)(=O)N2CCOCC2)c1 (stereo not drawn) [Example 2-267] | < 100 | ≥ 1000 | < 100 |  |  |  |
| CC1[C@H](c2ccccc2)[C@]1(NS(=O)(=O)c1ccc(-c2cc(C(F)(F)F)on2)o1)C(=O)O (stereo partly drawn) [Example 2-372] | ≥ 1000 | ≥ 10000 | ≥ 1000 |  |  |  |
| O=C(O)C1(NS(=O)(=O)c2ccc(-c3ccc(Cl)cc3)s2)CC1c1cccc(OCCN2CCOCC2)c1 (stereo not drawn) [Example 2-197] |  |  |  | < 1000 | ≥ 10000 | < 1000 |
| O=C(O)C1(NS(=O)(=O)c2ccc(-c3ccc(Cl)cc3)s2)CC1c1ccccc1OCCO (stereo not drawn) [Example 1-138] |  |  |  | < 100 | ≥ 1000 | < 1000 |
| O=C(O)C1(NS(=O)(=O)c2ccc(-c3ccc(Cl)cc3)s2)CC1c1cccc(OCc2ccccc2)c1 (stereo not drawn) [Example 2-36] |  |  |  | < 1000 | ≥ 10000 | < 1000 |
| O=C(O)C1(NS(=O)(=O)c2ccc(-c3cc(C(F)(F)F)on3)s2)C2Cc3ccccc3C21 (stereo not drawn) [Example 2-277] | < 1000 | ≥ 1000 | < 1000 |  |  |  |
| O=C(O)C1(NS(=O)(=O)c2ccc(-c3cc(C(F)(F)F)on3)s2)CC1c1cccc(N2CCOCC2)c1 (stereo not drawn) [Example 2-257] |  |  |  | < 100 | ≥ 1000 | < 1000 |
| CC1[C@H](c2ccccc2)[C@]1(NS(=O)(=O)c1ccc(-c2cc(C(F)(F)F)no2)s1)C(=O)O (stereo partly drawn) [Example 2-338] | < 100 | ≥ 1000 | < 1000 |  |  |  |
| O=C(NO)C1(NS(=O)(=O)c2ccc(-c3ccc(Cl)cc3)s2)C2CCc3ccccc3C21 (stereo not drawn) [Example 2-364] | < 1000 | < 1000 | < 100 |  |  |  |
| O=C1OCC2C(c3ccccc3)C12NS(=O)(=O)c1ccc(-c2cc(C(F)(F)F)on2)s1 (stereo not drawn) [Example 2-312] | ≥ 1000 | ≥ 10000 | ≥ 10000 |  |  |  |
| CC1(C)C(c2ccccc2)C1(NS(=O)(=O)c1ccc(-c2cc(C(F)(F)F)on2)s1)C(=O)O (stereo not drawn) [Example 2-275] | < 100 | ≥ 1000 | < 1000 |  |  |  |
| O=C1OCCN1CC1(c2ccccc2)CC1(NS(=O)(=O)c1ccc(-c2ccc(Cl)cc2)s1)C(=O)O (stereo not drawn) [Example 2-362] | < 1000 | ≥ 10000 | < 100 |  |  |  |
| CN1CCN(C(=O)Cc2cccc(C3CC3(NS(=O)(=O)c3ccc(-c4cc(C(F)(F)F)on4)s3)C(=O)O)c2)CC1 (stereo not drawn) [Example 2-221] |  |  |  | < 1000 | ≥ 1000 | < 100 |
| O=C(O)[C@]1(NS(=O)(=O)/C=C/c2ccc(Cl)cc2)C[C@@H]1c1ccccc1 [Example 2-151] |  |  |  | ≥ 10000 | ≥ 10000 | ≥ 1000 |
| CN(Cc1cccnc1)c1cccc([C@H]2C[C@@]2(NS(=O)(=O)c2ccc(-c3ccc(Cl)cc3)s2)C(=O)O)c1 [Example 2-183] |  |  |  | < 100 | ≥ 1000 | < 100 |
| O=C1CCCN1c1ccc(S(=O)(=O)N[C@@]2(C(=O)O)C[C@@H]2c2ccccc2)s1 [Example 2-163] |  |  |  | ≥ 10000 | ≥ 10000 | ≥ 10000 |
| CN(C)c1cccc([C@H]2C[C@@]2(NS(=O)(=O)c2ccc(-c3ccc(Cl)cc3)s2)C(=O)O)c1 [Example 2-176] |  |  |  | < 100 | ≥ 10000 | < 100 |
| O=C(O)C1(NS(=O)(=O)c2ccc(-c3ccc(Cl)cc3)s2)CC1c1cccc([N+](=O)[O-])c1 (stereo not drawn) [Example 1-127] |  |  |  | < 100 | ≥ 1000 | < 1000 |
| O=C(NC1CC1)c1ccc(S(=O)(=O)NC2(C(=O)O)CC2c2ccccc2)s1 (stereo not drawn) [Example 2-105] |  |  |  | ≥ 10000 | ≥ 10000 | ≥ 10000 |
| O=C(c1ccc(Cl)cc1)c1ccc(S(=O)(=O)N[C@@]2(C(=O)O)C[C@@H]2c2ccccc2)s1 [Example 2-307] | ≥ 1000 | ≥ 10000 | ≥ 1000 |  |  |  |
| O=C(O)C1(NS(=O)(=O)c2ccc(-c3ccc(O)cc3)s2)CC1c1ccccc1 (stereo not drawn) [Example 2-65] |  |  |  | < 1000 | ≥ 10000 | < 1000 |
| NC(=O)CCc1ccc([C@H]2C[C@@]2(NS(=O)(=O)c2ccc(-c3cc(C(F)(F)F)on3)s2)C(=O)O)cc1 [Example 2-278] | < 100 | < 1000 | < 100 |  |  |  |
| O=C(O)[C@@]1(NS(=O)(=O)c2ccc3c(c2)Cc2cc(Br)ccc2-3)C[C@H]1c1ccccc1 [Example 1-109] |  |  |  | < 1000 | ≥ 10000 | < 1000 |
| O=C(Cc1cccc(C2CC2(NS(=O)(=O)c2ccc(-c3cc(C(F)(F)F)on3)s2)C(=O)O)c1)N[C@H]1CC[C@H](O)CC1 (stereo partly drawn) [Example 2-233] |  |  |  | < 1000 | ≥ 1000 | < 100 |
| COCCN(C)Cc1ccccc1C1CC1(NS(=O)(=O)c1ccc(-c2ccc(Cl)cc2)s1)C(=O)O (stereo not drawn) [Example 2-89] |  |  |  | ≥ 1000 | ≥ 10000 | ≥ 1000 |

Second part, the compound after the results:

| IC50 (aggrecanase-1; [1]) [nM] | IC50 (MMP-1; [2]) [nM] | IC50 (Recombinant Human MMP-13; [3]) [nM] | IC50 (aggrecanase-1; [4]) [nM] | IC50 (MMP-1; [5]) [nM] | IC50 (Recombinant Human MMP-13; [6]) [nM] | SMILES |
| --- | --- | --- | --- | --- | --- | --- |
| ≥ 1000 | ≥ 1000 | < 1000 |  |  |  | O=C1COCCN1CC1(c2ccccc2)CC1(NS(=O)(=O)c1ccc(-c2ccc(Cl)cc2)s1)C(=O)O (stereo not drawn) [Example 2-400] |
| ≥ 1000 | ≥ 1000 | < 1000 |  |  |  | O=C(O)[C@]1(NS(=O)(=O)c2ccc(-n3cc(C(F)(F)F)cn3)nc2)C[C@@H]1c1ccccc1 [Example 2-558] |
| < 1000 | ≥ 10000 | < 100 |  |  |  | CC1[C@H](c2ccccc2)[C@]1(NS(=O)(=O)N1CCN(c2ccc(Br)cc2)CC1)C(=O)O (stereo partly drawn) [Example 2-458] |
| < 1000 | ≥ 10000 | < 1000 |  |  |  | CC(=O)NCC1(c2ccccc2)CC1(NS(=O)(=O)c1ccc(-c2ccc(Cl)cc2)s1)C(=O)O (stereo not drawn) [Example 2-376] |
| < 1000 | ≥ 1000 | < 1000 |  |  |  | O=C(CO)NCC1(c2ccccc2)CC1(NS(=O)(=O)c1ccc(-c2ccc(Cl)cc2)s1)C(=O)O (stereo not drawn) [Example 2-399] |
| < 1000 | ≥ 10000 | ≥ 1000 |  |  |  | C[C@]1(c2ccccc2)C[C@@]1(NS(=O)(=O)c1ccc(-c2ccc3c(c2)OCCO3)s1)C(=O)O [Example 2-485] |
| < 1000 | ≥ 1000 | < 1000 |  |  |  | CC1[C@H](c2ccccc2)[C@]1(NS(=O)(=O)c1ccc2nc(-c3ccccc3)[nH]c2c1)C(=O)O (stereo partly drawn) [Example 2-596] |
| ≥ 1000 | ≥ 1000 | < 1000 |  |  |  | CC1[C@H](c2ccccc2)[C@]1(NS(=O)(=O)N1Cc2ccc(Cl)cc2C1)C(=O)O (stereo partly drawn) [Example 2-538] |
| < 100 | < 1000 | < 100 |  |  |  | CC1[C@H](c2ccccc2)[C@]1(NS(=O)(=O)c1ccc(-c2cc(C(F)F)on2)cc1)C(=O)O (stereo partly drawn) [Example 2-401] |
| < 100 | ≥ 1000 | < 1000 |  |  |  | CC1[C@H](c2ccccc2)[C@]1(NS(=O)(=O)c1ccc(-c2ccc3nonc3c2)s1)C(=O)O (stereo partly drawn) [Example 2-517] |
| < 1000 | ≥ 1000 | ≥ 1000 |  |  |  | C[C@]1(c2ccccc2)C[C@@]1(NS(=O)(=O)c1ccc(-c2cc(O)c(F)c(F)c2)s1)C(=O)O [Example 2-601] |
| ≥ 1000 | ≥ 10000 | < 100 |  |  |  | O=C(O)C1(NS(=O)(=O)c2cn3cc(-c4ccc(F)cc4)nc3s2)CC1c1ccccc1 (stereo not drawn) [Example 2-491] |
| ≥ 1000 | ≥ 10000 | ≥ 1000 |  |  |  | O=C(Nc1ccc(S(=O)(=O)N[C@@]2(C(=O)O)C[C@@H]2c2ccccc2)cc1)c1ccccc1 [Example 2-473] |
| < 1000 | ≥ 10000 | < 1000 |  |  |  | O=C(CCO)NCC1(c2ccccc2)CC1(NS(=O)(=O)c1ccc(-c2ccc(Cl)cc2)s1)C(=O)O (stereo not drawn) [Example 2-395] |
| < 100 | ≥ 1000 | < 100 |  |  |  | O=C(O)C1(NS(=O)(=O)c2ccc(-c3ccc(Cl)cc3)s2)C2CCNc3ccccc3C21 (stereo not drawn) [Example 2-389] |
